Test results taken from patent US20230053688A1, “METHODS TO ALTER LATENCY IN EBV+ MALIGNANCIES” (Cornell University, priority 2020, published 2023).
Structures can show the parent of a compound that is named as a salt. Where two headings read alike, the source gives them in different places.

System: LMP1 expression in Kem I cells
Test: microbe, parasite or virus in culture
Format: cell-based, EBV
Settings: for fold induction at 2.5 µM: human gammaherpesvirus 4, 48 h
[1] = read-out: Average LMP1 Fold Increase, Kem I cells, 2.5 uM, 48 hours, average of replicates 1 and 2
[2] = read-out: Replicate 1-LMP1 Fold Increase, Kem I cells, 2.5 uM, 48 hours, fold change in LMP1 transcript vs vehicle
[3] = read-out: Replicate 2-LMP1 Fold Increase, Kem I cells, 2.5 uM, 48 hours, fold change in LMP1 transcript vs vehicle
[4] = Kem I cells, 2.5 uM, 48 hours, average of replicates 1 and 2
[5] = Kem I cells, 2.5 uM, 48 hours, fold change in LMP1 transcript vs vehicle
[6] = Kem I cells, dose 2.5 uM, 48 hours, LMP1 transcript by in-well qRT-PCR, average of the two replicates
[7] = Kem I cells, dose 2.5 uM, 48 hours, LMP1 transcript by in-well qRT-PCR, screen replicate 1
[8] = Kem I cells, dose 2.5 uM, 48 hours, LMP1 transcript by in-well qRT-PCR, screen replicate 2
[9] = read-out: Average LMP1 Fold Increase, Kem I cells, dose 2.5 uM, 48 hours, LMP1 transcript by in-well qRT-PCR, average of the two replicates
[10] = read-out: Replicate 1-LMP1 Fold Increase, Kem I cells, dose 2.5 uM, 48 hours, LMP1 transcript by in-well qRT-PCR, screen replicate 1
[11] = read-out: Replicate 2-LMP1 Fold Increase, Kem I cells, dose 2.5 uM, 48 hours, LMP1 transcript by in-well qRT-PCR, screen replicate 2

SMILES	Average LMP1 Fold Increase [4]	Replicate 1-LMP1 Fold Increase [5]	Replicate 2-LMP1 Fold Increase [5]	other results
C[C@]12CC[C@@H]3c4ccc(O)cc4C[C@@H](CCCCCCCCC[S+]([O-])CCCC(F)(F)C(F)(F)F)[C@H]3[C@@H]1CC[C@@H]2O (stereo partly drawn) [Fulvestrant]				fold induction at 2.5 µM [1]: 0.17; fold induction at 2.5 µM [2]: 0.16; fold induction at 2.5 µM [3]: 0.18
N#CSc1cc(SC#N)c(N)nc1N [PR-619]	0.31	0.23	0.39	
Cc1cc(OCc2nnc(SC3CCCC3)n2-c2cccnc2)ccc1-c1ccc(S(C)(=O)=O)cc1 [NMS-873]				fold induction at 2.5 µM [1]: 1; fold induction at 2.5 µM [2]: 1.05; fold induction at 2.5 µM [3]: 0.95
O=C(O)c1cccc(-c2noc(-c3ccccc3F)n2)c1 [Ataluren (PTC124)]	0.49	0.50	0.48	
CCN(CC)C(=O)/C(C#N)=C/c1cc(O)c(O)c([N+](=O)[O-])c1 [Entacapone]				fold induction at 2.5 µM [1]: 0.6; fold induction at 2.5 µM [2]: 0.49; fold induction at 2.5 µM [3]: 0.71
OCCn1cc(-c2cnc3nnn(Cc4ccc5ncccc5c4)c3n2)cn1 [PF-04217903]	1.03	0.96	1.11	
Nc1ncnc2n[nH]c(Nc3ccc(F)cc3)c12 [CGP 57380]	1.33	0.81	1.86	
COc1cc(F)c(C(C)C)cc1-c1ccc(C(F)(F)F)cc1CN1C(=O)O[C@H](c2cc(C(F)(F)F)cc(C(F)(F)F)c2)[C@@H]1C [Anacetrapib (MK-0859)]	0.63	0.80	0.46	
CCN(CC)CCCC(C)Nc1nc(C)cc(Nc2ccc3nc(C)cc(N)c3c2)n1 (stereo not drawn) [NSC 23766]	0.82	0.62	1.01	
O=C(NCc1cccc(O)c1)Nc1nc(-c2ccncc2)cs1 [RKI-1447]	0.54	0.75	0.33	
CC1C(=O)OC2C(O)C34C5CC(C(C)(C)C)C36C(OC(=O)C6O)OC4(C(=O)O5)C12O (stereo not drawn) [Ginkgolide B]	0.76	1.04	0.49	
CCc1cccc2c3c([nH]c12)C(CC)(CC(=O)O)OCC3 (stereo not drawn) [Etodolac]				fold induction at 2.5 µM [1]: 0.84; fold induction at 2.5 µM [2]: 0.57; fold induction at 2.5 µM [3]: 1.1
Cc1cn([C@H]2C=C[C@@H](CO)O2)c(=O)[nH]c1=O [Stavudine (d4T)]	0.73	0.83	0.63	
C[C@H](NC(=O)Cc1cc(F)cc(F)c1)C(=O)N[C@@H]1C(=O)N(C)c2ccccc2-c2ccccc21 [YO-01027]				Average LMP1 Fold Increase [6]: 0.35 fold; Replicate 1-LMP1 Fold Increase [7]: 0.44 fold; Replicate 2-LMP1 Fold Increase [8]: 0.27 fold
O=[N+]([O-])c1ccc2c(c1)S(=O)(=O)C=C2 [Stattic]	26.57	50.36	2.79	
Cl.Cl.NC1(c2ccc(-c3nc4ccn5c(=O)[nH]nc5c4cc3-c3ccccc3)cc2)CCC1 [MK-2206 2HCl]	0.51	0.44	0.59	
NC(=O)Nc1sc(-c2ccc(F)cc2)cc1C(N)=O [TPCA-1]				Average LMP1 Fold Increase [6]: 0.48 fold; Replicate 1-LMP1 Fold Increase [7]: 0.59 fold; Replicate 2-LMP1 Fold Increase [8]: 0.36 fold
Cc1cc(-c2ccc(CC(=O)Nc3ccc(-c4cccnc4)cc3)cc2)ccn1 [Wnt-C59 (C59)]				Average LMP1 Fold Increase [6]: 0.98 fold; Replicate 1-LMP1 Fold Increase [7]: 0.60 fold; Replicate 2-LMP1 Fold Increase [8]: 1.35 fold
Cc1cc(Nc2ccc(NC(=O)c3ccc(Nc4ccnc5ccccc45)cc3)cc2)nc(N)n1 [SGI-1027]	53.53	13.12	93.95	
N#CC[C@H](C1CCCC1)n1cc(-c2ncnc3[nH]ccc23)cn1 [Ruxolitinib (INCB018424)]	0.41	0.48	0.34	
C#CCN[C@@H]1CCc2ccccc21 [Rasagiline Mesylate]				fold induction at 2.5 µM [1]: 0.69; fold induction at 2.5 µM [2]: 0.86; fold induction at 2.5 µM [3]: 0.51
CC(C)OC(=O)C1=CN(C(=O)c2ccc(F)c(F)c2)CC(C)(C)c2c1[nH]c1ccccc21 [XL335]				fold induction at 2.5 µM [9]: 0.27; fold induction at 2.5 µM [10]: 0.39; fold induction at 2.5 µM [11]: 0.14

SMILES	Average LMP1 Fold Increase [4]	Replicate 1-LMP1 Fold Increase [5]	Replicate 2-LMP1 Fold Increase [5]	other results
CN(C)CCOc1ccc(/C(=C(/CCCl)c2ccccc2)c2ccccc2)cc1 [Toremifene Citrate]				fold induction at 2.5 µM [9]: 0.54; fold induction at 2.5 µM [10]: 0.55; fold induction at 2.5 µM [11]: 0.54
COc1ccccc1S(=O)(=O)Nc1ccc2c(c1)CN(C)C(=O)N2 [PFI-1 (PF-6405761)]	0.78	0.42	1.15	
O=C(O)C(Cc1ccccc1[N+](=O)[O-])=NNc1nc(-c2ccc(Cl)c(Cl)c2)cs1 (mixture of isomers) [4EGI-1]	0.64	0.41	0.86	
C[C@@H]1CN(CC(=O)Nc2ccc3c(c2)Cc2cccc(-c4cc(=O)cc(N5CCOCC5)o4)c2S3)C[C@H](C)O1 [KU-60019]				fold induction at 2.5 µM [1]: 0.51; fold induction at 2.5 µM [2]: 0.49; fold induction at 2.5 µM [3]: 0.53
O=C1NC(=O)/C(=C/c2cccc(C(F)(F)F)c2)S1 [SMI-4a]	0.41	0.29	0.53	
CN[C@@H](C)C(=O)N[C@H](C(=O)N1CCC[C@H]1C(=O)Nc1snnc1-c1ccccc1)C1CCCCC1 [GDC-0152]	0.68	0.76	0.59	
CC(C)N(CCCNC(=O)Nc1ccc(C(C)(C)C)cc1)C[C@H]1O[C@@H](n2cc(Br)c3c(N)ncnc32)[C@H](O)[C@@H]1O [SGC 0946]				fold induction at 2.5 µM [1]: 0.29; fold induction at 2.5 µM [2]: 0.26; fold induction at 2.5 µM [3]: 0.31
Cc1nc(C(=O)NCC(=O)O)c(O)c2ccc(Oc3ccccc3)cc12 [FG-4592]				fold induction at 2.5 µM [1]: 0.22; fold induction at 2.5 µM [2]: 0.19; fold induction at 2.5 µM [3]: 0.24
CC(=O)O[C@H]1C[C@@H]2CC[C@@H]3[C@H](CC[C@@]4(C)[C@H]3C[C@H]([N+]3(C)CCCCC3)[C@@H]4OC(C)=O)[C@@]2(C)C[C@@H]1[N+]1(C)CCCCC1.[Br-].[Br-] [Pancuronium dibromide]	0.28	0.25	0.31	
C1=N/C2=N/c3ccc(OCCN4CCCC4)c(c3)COC/C=C/COCc3cccc(c3)C(=C1)N2 [Pacritinib (SB1518)]	0.37	0.24	0.49	
CCCCCCCCCCCCCCCCn1cc[n+](Cc2ccccc2)c1C.[I-] [NH125]	0.70	0.94	0.46	
COc1ccccc1OCCNCC(O)COc1cccc2[nH]c3ccccc3c12 (stereo not drawn) [Carvedilol]				fold induction at 2.5 µM [1]: 0.88; fold induction at 2.5 µM [2]: 0.89; fold induction at 2.5 µM [3]: 0.87
CCOC(=O)C1=C(C)NC(C)=C(C(=O)OC)C1c1cccc(Cl)c1Cl (stereo not drawn) [Felodipine]				fold induction at 2.5 µM [1]: 0.77; fold induction at 2.5 µM [2]: 0.84; fold induction at 2.5 µM [3]: 0.69
NC(=O)Nc1cc(-c2cccc(F)c2)sc1C(=O)N[C@H]1CCCNC1 [AZD7762]	5.84	9.74	1.94	
C#Cc1cccc(Nc2ncnc3cc(OCCOC)c(OCCO)cc23)c1 [OSI-420]	0.66	0.84	0.49	
CC1=C(C(=O)OC2CCCCC2)C(c2ccc([N+](=O)[O-])cc2)C2=C(CC(C)(C)CC2=O)N1 (stereo not drawn) [FLI-06]	0.46	0.19	0.73	
COc1cc(Nc2c(C#N)cnc3cc(OCCCN4CCN(C)CC4)c(OC)cc23)c(Cl)cc1Cl [Bosutinib (SKI-606)]	0.81	0.36	1.26	
O=c1oc2cc(O)ccc2s1 [Tioxolone]				fold induction at 2.5 µM [9]: 0.55; fold induction at 2.5 µM [10]: 0.7; fold induction at 2.5 µM [11]: 0.41
CCO.N#CC(=C(/N)Sc1ccccc1N)/C(C#N)=C(\N)Sc1ccccc1N [U0126-EtOH]				Average LMP1 Fold Increase: 0.58 fold; Replicate 1-LMP1 Fold Increase: 0.51 fold; Replicate 2-LMP1 Fold Increase: 0.65 fold
Cl.N[C@@H]1C[C@H]1c1ccccc1 (racemic) [Tranylcypromine (2-PCPA) HCl]				Average LMP1 Fold Increase: 0.33 fold; Replicate 1-LMP1 Fold Increase: 0.22 fold; Replicate 2-LMP1 Fold Increase: 0.45 fold
Cc1cc(C(C)(C)C)c(O)c(C)c1CC1=NCCN1 [Oxymetazoline HCl]				fold induction at 2.5 µM [1]: 0.66; fold induction at 2.5 µM [2]: 0.6; fold induction at 2.5 µM [3]: 0.72
